The values that follow come from patent US20190142954A1, “POLYMER-BONDED CA4 PHARMACEUTICAL COMPOUND AND PREPARATION METHOD THEREFOR” (priority 2016, published 2019).

In experiment [1] the test system is C26 murine colon cancer cells. Put plainly: Therapeutic effect on tumor by single administration (pathological H&E analysis). Conditions: C26 tumor in Balb/C mice, tail vein injection, 50 mg CA4/kg, 72 hours. The format is in vivo. The procedure:
6 Balb/C mice (5-6 weeks old, female, body weight of approximately 20 g) were utilized, and C26 murine colon cancer cells were seeded at the right underarm at 2.0×10^6/mouse, respectively. […] The administration dosage was 50 mg CA4/kg body weight. The mice were sacrificed after 72 hours. Tumor was collected, and pathological H&E analysis was performed.

For another experiment, the system named is C26 cells. In words: Tumor inhibition effect of polymer-bonded CA4 pharmaceutical compound. It is filed as in vivo. Conditions: C26 tumor in Balb/C mice, 50.0 mg CA4/kg on day 1, 5 and 9, observation until day 17. The procedure: The administration dosage was 50.0 mg CA4/kg body weight. Tumor was measured 3 times per week and body weights of mice were recorded, and observation was not stopped until day 17.

Each structure is given as a SMILES string.

As for `COc1ccc(/C=C\c2cc(OC)c(OC)c(OC)c2)cc1OP(=O)([O-])[O-].[Na+].[Na+]` [CA4P, Combretastatin A4 phosphate disodium], the “tumor pathological analysis after single administration” value in experiment [1] is “a wide range of recurrence occurred in the tumor”. This molecule returned a tumor inhibition rate in the experiment on C26 cells of 24.0%.
